Laboratory results published in ChEMBL document CHEMBL3272309, “Potential central nervous system antitumor agents. Aziridinylbenzoquinones. 1” (J Med Chem, 1976).

How the values were obtained:
[1] = tested on: Lewis lung carcinoma cell line; test: Antitumor activity against mouse LLC cells allografted in mouse assessed as mouse survival at 2 mg/kg, ip qd administered from day 5 to 15 post sc tumor-implantation relative to control; type: functional; conditions: route subcutaneous
[2] = tested on: Lewis lung carcinoma cell line; test: Antitumor activity against mouse LLC cells allografted in mouse assessed as change in body weight at 4 mg/kg, ip qd administered from day 5 to 15 post sc tumor-implantation measured on day 5 relative to control; type: functional; conditions: route subcutaneous
[3] = tested on: L1210; test: Antitumor activity against mouse L1210 cells allografted in mouse assessed as change in body weight at 0.88 mg/kg, ip qd administered from day 1 to 9 post ip tumor-implantation measured on day 5 relative to control; type: functional; conditions: route intraperitoneal
[4] = tested on: P388; test: Antitumor activity against mouse P388 cells allografted in mouse assessed as mouse survival at 0.78 mg/kg, ip qd administered from day 1 to 9 post intracerebral tumor-implantation relative to control; type: functional; conditions: route intraperitoneal
[5] = tested on: P388; test: Antitumor activity against mouse P388 cells allografted in mouse assessed as change in body weight at 3.12 mg/kg, ip qd administered from day 1 to 9 post ip tumor-implantation measured on day 5 relative to control; type: functional; conditions: route intraperitoneal
[6] = Antitumor activity against mouse ependymoblastoma cells allografted in mouse assessed as change in body weight at 4 mg/kg, ip qd administered from day 1 to 5 post intracerebral tumor-implantation measured on day 5 relative to control; type: functional; conditions: route intraperitoneal
[7] = tested on: L1210; test: Antitumor activity against mouse L1210 cells allografted in mouse assessed as mouse survival at 3.12 mg/kg, ip qd administered from day 1 to 9 post ip tumor-implantation relative to control; type: functional; conditions: route intraperitoneal
[8] = tested on: P388; test: Antitumor activity against mouse P388 cells allografted in mouse assessed as mouse survival at 3.12 mg/kg, ip qd administered from day 1 to 9 post intracerebral tumor-implantation relative to control; type: functional; conditions: route intraperitoneal
[9] = Antitumor activity against mouse ependymoblastoma cells allografted in mouse assessed as mouse survival at 0.5 mg/kg, ip qd administered from day 1 to 5 post intracerebral tumor-implantation relative to control; type: functional; conditions: route intraperitoneal
[10] = tested on: B16; test: Antitumor activity against mouse B16 cells allografted in mouse assessed as change in body weight at 0.78 mg/kg, ip qd administered from day 1 to 9 post ip tumor-implantation measured on day 5 relative to control; type: functional; conditions: route intraperitoneal
[11] = tested on: L1210; test: Antitumor activity against mouse L1210 cells allografted in ip dosed mouse assessed as optimum dose administered qd on day 1, 5 and 9; type: functional
[12] = tested on: L1210; test: Antitumor activity against mouse L1210 cells allografted in mouse assessed as change in body weight at 0.78 mg/kg, ip qd administered from day 1 to 9 post intracerebral tumor-implantation measured on day 5 relative to control; type: functional; conditions: route intraperitoneal
[13] = tested on: B16; test: Antitumor activity against mouse B16 cells allografted in mouse assessed as mouse survival at 0.78 mg/kg, ip qd administered from day 1 to 9 post ip tumor-implantation relative to control; type: functional; conditions: route intraperitoneal
[14] = tested on: L1210; test: Antitumor activity against mouse L1210 cells allografted in mouse assessed as mouse survival at 4.6 mg/kg, ip qd administered from day 1 to 9 post ip tumor-implantation relative to control; type: functional; conditions: route intraperitoneal
[15] = Therapeutic ratio, ratio of highest active dose to lowest active for antitumor activity against in ip dosed mouse allografted with mouse LLC cells; type: organism-based, Lewis lung carcinoma; conditions: in vivo, read-out: TI
[16] = tested on: P388; test: Antitumor activity against mouse P388 cells allografted in mouse assessed as mouse survival at 3.12 mg/kg, ip qd administered from day 1 to 9 post ip tumor-implantation relative to control; type: functional; conditions: route intraperitoneal
[17] = Antitumor activity against mouse ependymoblastoma cells allografted in mouse assessed as change in body weight at 2 mg/kg, ip qd administered from day 1 to 5 post intracerebral tumor-implantation measured on day 5 relative to control; type: functional; conditions: route intraperitoneal
[18] = Therapeutic ratio in ip dosed mouse allografted with mouse ependymoblastoma cells; type: ADME, organism-based; conditions: in vivo, read-out: TI
[19] = tested on: P388; test: Antitumor activity against mouse P388 cells allografted in mouse assessed as mouse survival at 0.39 mg/kg, ip qd administered from day 1 to 9 post intracerebral tumor-implantation relative to control; type: functional; conditions: route intraperitoneal
[20] = tested on: B16; test: Antitumor activity against mouse B16 cells allografted in mouse assessed as change in body weight at 6.25 mg/kg, ip qd administered from day 1 to 9 post ip tumor-implantation measured on day 5 relative to control; type: functional; conditions: route intraperitoneal
[21] = Antitumor activity against mouse ependymoblastoma cells allografted in mouse assessed as change in body weight at 0.25 mg/kg, ip qd administered from day 1 to 5 post intracerebral tumor-implantation measured on day 5 relative to control; type: functional; conditions: route intraperitoneal
[22] = tested on: L1210; test: Antitumor activity against mouse L1210 cells allografted in mouse assessed as mouse survival at 6.25 mg/kg, ip qd administered from day 1 to 9 post ip tumor-implantation relative to control; type: functional; conditions: route intraperitoneal
[23] = tested on: L1210; test: Antitumor activity against mouse L1210 cells allografted in mouse assessed as change in body weight at 1.3 mg/kg, ip qd administered from day 1 to 9 post ip tumor-implantation measured on day 5 relative to control; type: functional; conditions: route intraperitoneal
[24] = tested on: P388; test: Antitumor activity against mouse P388 cells allografted in mouse assessed as mouse survival at 1.56 mg/kg, ip qd administered from day 1 to 9 post ip tumor-implantation relative to control; type: functional; conditions: route intraperitoneal
[25] = Therapeutic ratio, ratio of highest active dose to lowest active for antitumor activity against in ip dosed mouse allografted with mouse L1210 cells; type: ADME, organism-based; conditions: in vivo, read-out: TI
[26] = tested on: L1210; test: Antitumor activity against mouse L1210 cells allografted in mouse assessed as change in body weight at 2 mg/kg, ip qd administered from day 1 to 9 post ip tumor-implantation measured on day 5 relative to control; type: functional; conditions: route intraperitoneal
[27] = tested on: Mus musculus; test: Toxicity in mouse allografted with mouse ependymoblastoma cells at 4 mg/kg, ip qd administered from day 1 to 5 post intracerebral tumor-implantation; type: organism-based; parameters: dose 4 mg/kg, route intraperitoneal; conditions: in vivo
[28] = tested on: B16; test: Antitumor activity against mouse B16 cells allografted in mouse assessed as change in body weight at 1.56 mg/kg, ip qd administered from day 1 to 9 post ip tumor-implantation measured on day 5 relative to control; type: functional; conditions: route intraperitoneal
[29] = tested on: Mus musculus; test: Toxicity in mouse allografted with mouse ependymoblastoma cells at 8 mg/kg, ip qd administered from day 1 to 5 post intracerebral tumor-implantation; type: organism-based; parameters: dose 8 mg/kg, route intraperitoneal; conditions: in vivo
[30] = tested on: Mus musculus; test: Toxicity in mouse allografted with mouse LLC cells at 4 mg/kg, ip qd administered from day 5 to 15 post sc tumor-implantation; type: organism-based; parameters: dose 4 mg/kg; conditions: in vivo
[31] = tested on: Lewis lung carcinoma cell line; test: Antitumor activity against mouse LLC cells allografted in mouse assessed as mouse survival at 1 mg/kg, ip qd administered from day 5 to 15 post sc tumor-implantation relative to control; type: functional; conditions: route subcutaneous
[32] = tested on: L1210; test: Antitumor activity against mouse L1210 cells allografted in mouse assessed as mouse survival at 1.56 mg/kg, ip qd administered from day 1 to 9 post intracerebral tumor-implantation relative to control; type: functional; conditions: route intraperitoneal
[33] = Therapeutic ratio, ratio of highest active dose to lowest active for antitumor activity against in ip dosed mouse allografted with mouse B16 cells; type: ADME, organism-based; conditions: in vivo, read-out: TI
[34] = tested on: L1210; test: Antitumor activity against mouse L1210 cells allografted in mouse assessed as change in body weight at 1.56 mg/kg, ip qd administered from day 1 to 9 post intracerebral tumor-implantation measured on day 5 relative to control; type: functional; conditions: route intraperitoneal

Compound: CCOC(=O)NC1=C(N2CC2)C(=O)C(NC(=O)OCC)=C(N2CC2)C1=O [DIAZIQUONE]
- T/C [1]: 134%
- Activity [2]: -0.1 g
- Activity [3]: -1.4 g
- T/C [4]: 125%
- Activity [5]: -4.1 g
- Activity [6]: -3.9 g
- T/C [7]: 128%
- T/C [8]: 131%
- T/C [9]: 162%
- Activity [10]: -2.2 g
- Activity [11]: 6.25 mg/kg
- Activity [12]: -0.5 g
- T/C [13]: 113%
- T/C [14]: 98%
- selectivity ratio [15]: 3
- T/C [16]: 100%
- Activity [17]: -2.7 g
- selectivity ratio [18]: 4
- T/C [19]: 102%
- Activity [20]: -4.4 g
- Activity [21]: -1.5 g
- T/C [22]: 127%
- Activity [23]: -2.3 g
- T/C [24]: 212%
- selectivity ratio [25]: 4
- Activity [26]: -3.8 g
- Activity [27]: Toxic
- Activity [28]: -3.6 g
- Activity [29]: Toxic
- Activity [30]: Toxic
- T/C [31]: 89%
- T/C [32]: 146%
- selectivity ratio [33]: 3
- Activity [34]: -0.6 g
